Measured values: article PMC9240354, “Pharmacokinetics, Pharmacodynamics and Antiviral Efficacy of the MEK Inhibitor Zapnometinib in Animal Models and in Humans” (Frontiers in Pharmacology, 2022)

Assay: tolerability in mice
Format: in vivo
Conditions: influenza virus infected mice, 25 mg/kg BID p.o.
Experimental: Zapnometinib [2-(2-Chloro-4-Iodophenylamino)-N-3,4-Difluoro benzoic acid] (M = 409.56 g/mol) was synthesized at ChemCon GmbH (Freiburg, Germany). The doses used in this study were chosen based on previously unpublished preclinical data. […] The toxicity of zapnometinib was evaluated in single- and repeat-dose p. o. studies of up to 1-month duration in rats and dogs. The genetic toxicity of zapnometinib was investigated in compliance with ICH S2; a standard battery of genotoxicity studies was performed, comprising an Ames test, an in vitro chromosome aberration test in human lymphocytes and an in vivo micronucleus assay in rats. Thus, the doses used in this manuscript were safe (Koch-Heier et al., manuscript in preparation). For treatment of mice, 10.5 mg zapnometinib were dissolved in 5% (v/v) dimethyl sulfoxide (DMSO) (Carl Roth GmbH, Karlsruhe, Germany) and further diluted with 15% (v/v) Cremophor EL (Merck KGaA, Darmstadt, Germany), and 80% (v/v) phosphate-buffered saline (PBS) (Gibco, Carlsbad, CA, California, United States). Each mouse received a dose of 25 mg/kg zapnometinib in an application volume of 200 µL of the formulation by oral gavage. The first treatment was given on day 0 (1 h prior to influenza virus infection) and the second treatment 7 h post infection. […]

For `O=C(O)c1ccc(F)c(F)c1Nc1ccc(I)cc1Cl` [zapnometinib, 2-(2-Chloro-4-Iodophenylamino)-N-3,4-Difluoro benzoic acid], the tolerability was “well tolerated and not toxic”.
